Where a SMILES comes first, the peptide text is derived from it. Bridges are numbered along the chain shown (N, C = ends). [ ]: non-standard residue; d: D form. S5 = C=CCCC[C@](C)(N)C(=O)O

The target of the experiment is SARS-CoV-2 Spike RBD-ACE2 interaction (Severe acute respiratory syndrome coronavirus 2, UniProt P0DTC2). The class given is binding, SARS-CoV-2 / human.

Turning to `CC(C)C[C@@H]1NC(=O)[C@H](CC(=O)O)NC(=O)[C@H](CCC(=O)O)NC(=O)[C@@](C)(NC(=O)[C@H](CCC(=O)O)NC(=O)[C@@H](N)Cc2c[nH]cn2)CCC/C=C\CCC[C@@](C)(C(=O)N[C@@H](Cc2ccc(O)cc2)C(=O)N[C@@H](CCC(N)=O)C(N)=O)NC1=O` [Compound 6] (H-HE[S5]EDL[S5]YQ-NH2; staple (Z) 3-7; N-terminus and C-terminus assumed), the “inhibition of the spike RBD-ACE2 interaction (in words)” value is on record as “significant inhibitory activity”.

The values above are taken from article PMC9842534 (European Journal of Medicinal Chemistry, 2023).
